US20230293519A1, “INTEGRIN INHIBITORS AND USES THEREOF IN COMBINATION WITH OTHER AGENTS” (Pliant Therapeutics, Inc., priority 2021, published 2023)
Each block holds one compound with its values, some of them ahead of it.

Columns and labels:
lung Col1a1 expression [1] = assay: Precision cut lung slices of mice under chronic bleomycin exposure (vs pirfenidone and nintedanib); type: cell-based, mouse; settings: slices cultured 7 days; nintedanib and pirfenidone at 10x therapeutic concentrations
Method: (§1) Mice (C57BL/6) were administered 3 U/kg of bleomycin (Teva Pharmaceuticals; North Wales, PA) on Day 0 and 1 U/kg of bleomycin on days 14, 28, 42 and 56 via oropharyngeal aspiration while under anesthesia. At day 70, 14 days following the final bleomycin insult, precision cut lung slices were obtained. Following euthanization, 2% low gelling temp agarose was injected into the mouse lungs via the trachea. […] The lobes were then subjected to precision slicing to obtain samples for culture using a microtome (Compresstome VF-300-0Z, Precisionary; Greenville, NC). Individual slices were distributed in a multiwell culture plate and cultured for 7 days under control (DMSO) and test compound conditions. The viability of the slices over the course of culturing was confirmed by WST-1 assay of mitochondrial activity.
During the culture period, slices in the control group were treated with DMSO and slices in the test group were treated with a DMSO solution of one of: compound 5; nintedanib; pirfenidone; a combination of nintedanib and compound 5; a combination of pirfenidone and compound 5; or the small molecule ALK5 inhibitor. Compound 5 was […] effective to equal or exceed its respective IC50 values at αvβ6 and αvβ1. The small molecule ALK5 inhibitor was analyzed at 10x its reported IC50 value. Nintendanib and pirfenidone were analyzed at concentrations 10x their reported therapeutic concentrations.

COL1A1 expression = assay: PCLS from human IPF lung tissue, 7 days: COL1A1 expression; type: cell-based; settings: Compound 5 200 nM, nintedanib 75 nM, pirfenidone 50 µM, 5-7 IPF lungs
Method: PCLS from 5-7 idopathic pulmonary fibrosis (IPF) lung tissue samples were cultured for seven days with one of: DMSO; Compound 5 at 200 nM; nintedanib at 75 nM; pirfenidone at 50 µm; a combination of Compound 5 at 200 nM and nintedanib at 75 nM; a combination of Compound 5 at 200 nM and pirfenidone at 50 µm; or an Alk5 inhibitor at 1 µm. […] FIG. 6D is a bar graph showing relative expression of COL1A1 in precision cut lung slices (PCLS) from idopathic pulmonary fibrosis (IPF) lung tissue upon exposure to Comopund 5, clinical standard of care compounds nintedanib (Nin) and pirfenidone (Pirf), and an ALK5 inhibitor, all versus DMSO control.
PCLS from a single IPF lung tissue sample were cultured for seven days with Compound 5 at concentrations of 200 pM, 2 nM, 60 nM, 200 nM, and 1 µM, along with 0.1% DMSO control and an Alk5 inhibitor at 1 µM. […] COL1A1 expression is also graphed for the PCLS in the presence of 0.1% DMSO control, and an Alk5 inhibitor at 1 µM.

[2] = test system: Type I Collagen gene Col1a1 expression; assay: Precision cut lung slices of mice under acute bleomycin exposure; type: cell-based, mouse; settings: for fold increase in concentration over compound 5 needed to reduce lung slice Col1a1 expression by 50%: acute bleomycin injured lung slices
Method: Mice (C57BL/6) were administered 3 U/kg of bleomycin (Teva Pharmaceuticals; North Wales, PA) on day 0 via oropharyngeal aspiration while under anesthesia. On day 14, precision cut lung slices were obtained. Following euthanization, 2% low gelling temp agarose was injected into the mouse lungs via the trachea. […] The lobes were then subjected to precision slicing to obtain samples for culture using a microtome (Compresstome VF-300-0Z, Precisionary; Greenville, NC). Individual slices were distributed in a multiwell culture plate and cultured for 3 days under control (DMSO) and test compound conditions.

[3] = test system: fibrosis-related gene expression in explanted human lung tissue from patients with idiopathic pulmonary fibrosis; assay: nCounter Fibrosis Panel gene expression in precision cut lung slices from IPF explants; type: cell-based; settings: IPF PCLS, 7 days, vs DMSO
From the text: Fibrosis-related gene expression in explanted human lung tissue from patients with idiopathic pulmonary fibrosis was examined in order to determine what impact combining Compound 5 treatment with standard-of-care drugs nintedanib or pirfenidone, has on the expression of such genes.
Samples used for this analysis are a subset (n = 4 of 7) of the lungs previously reported on in Decaris et al., Respir Res (2021) 22:265 (FIGS. 6 A and B). Briefly, tissue samples from patients with IPF were acquired at the time of lung transplantation. Precision cut lung slices were generated from the explants and cultured for 7 days in the presence of inhibitors (Compound 5, nintedanib, pirfenidone) at clinically relevant concentrations or vehicle (DMSO). Treated slices were lysed in mRNA-compatible buffer for gene expression analysis. For this study, the lysate from n = 6 slices per treatment per lung were pooled for analysis using the nCounter Fibrosis Panel (Nanostring) on the nCounter Max analyzer (Nanostring). This commercially available panel of 770 genes includes genes related to initial tissue damage response, chronic inflammation, proliferation of pro-fibrotic cells, and tissue modification leading to fibrotic disease. Technical quality control and normalization of raw Nanostring mRNA count data was performed using an R framework developed by Bhattacharya et al. (Bhattacharya A. et al., Brief Bioinform. 2021 May 20;22(3):bbaa163). The R packages limma (see URL www.bioconductor.org/packages/release/bioc/html/limma.html) and voom (Law, C.W. et al., Genome Biol. 2014 Feb 3;15(2):R29) were used to detect differentially expressed genes. Benjamini-Hochberg False Discovery Rate (FDR = 5%) was used to adjust p-values for multiple comparisons.

lung Col1a1 expression [4] = assay: Precision cut lung slices from human IPF explants, 3 days; type: cell-based; settings: 3G9 ≥400 ng/mL, compound 5 179 nM, ALK5 inhibitor 1 µM
From the text: Explanted lung tissue was obtained from human IPF subjects and inflated with agarose as described in the preceding examples. Biopsy cores were obtained from the agarose-inflated lung tissue. The biopsy cores were subjected to precision slicing to obtain several hundred µm thick. Individual slices were distributed in a multiwell culture plate and cultured for 3 days under control (DMSO) and test compound conditions. The viability of the slices over the course of culturing was confirmed by WST-1 assay of mitochondrial activity.

lung Col1a1 expression [5] = assay: Precision cut lung slices of mice under chronic bleomycin exposure (single vs dual integrin inhibition); type: cell-based, mouse; settings: slices cultured 7 days
Method: as §1, with “after” for “following”, “The viability of the slices over the course of culturing was confirmed by WST-1 assay of mitochondrial activity.” left out
During the culture period, slices in the control group were treated with DMSO and slices in the test group were treated with a DMSO solution of one of: the selective antibody αvβ6 inhibitor 3G9; the αvβ1-selective small molecule inhibitor; a combination of the selective antibody αvβ6 inhibitor 3G9 and the αvβ1-selective small molecule inhibitor; compound 5; and the small molecule ALK5 inhibitor. The selective αvβ1 and αvβ6 integrin inhibitors were analyzed at ≥ their respective IC90 concentrations for inhibition of TGF-beta activation. […] The small molecule ALK5 inhibitor was analyzed at 10x its reported IC50 value.

logFC of CYP2J2 expression [3]: 1.025
SMILES: COC(=O)c1ccc2c(c1)NC(=O)/C2=C(\Nc1ccc(N(C)C(=O)CN2CCN(C)CC2)cc1)c1ccccc1 [nintedanib, 3-Z-[1-(4-(N-((4-methyl-piperazin-1-yl)-methylcarbonyl)-N-methyl-amino)-anilino)-1-phenyl-methylene]-6-methoxycarbonyl-2-indolinone]
lung Col1a1 expression vs DMSO control (lung Col1a1 expression [1]): slight increase | reduction of COL1A1 expression (COL1A1 expression): did not significantly reduce | fold increase in concentration over compound 5 needed to reduce lung slice Col1a1 expression by 50% [2]: 5.2 fold | % Reduction of APOC2 expression [3]: 16.88% | % Reduction of CDH2 expression [3]: -9.99% | % Reduction of COL1A1 expression [3]: 27.60% | % Reduction of COL4A2 expression [3]: 31.55% | % Reduction of FAP expression [3]: 35.72% | % Reduction of FCGR3A/B expression [3]: 33.44% | % Reduction of ITGB3 expression [3]: 16.60% | % Reduction of LOX expression [3]: 40.76% | % Reduction of LOXL2 expression [3]: 15.99% | % Reduction of NID1 expression [3]: 26.59% | % Reduction of PDGFRB expression [3]: 42.09% | % Reduction of POSTN expression [3]: 38.94% | % Reduction of SERPINE1 expression [3]: 9.75% | % Reduction of SERPINH1 expression [3]: 15.02% | % Reduction of SPP1 expression [3]: 59.73% | % Reduction of TGFB1 expression [3]: 21.04% | % Reduction of THBS2 expression [3]: 25.58% | logFC of ACTA2 expression [3]: 0.6841 | logFC of ACVRL1 expression [3]: -1.329 | logFC of ADH1B expression [3]: 0.8975 | logFC of ADH1C expression [3]: 0.9337 | logFC of ALDH7A1 expression [3]: 0.7402 | logFC of AMOTL2 expression [3]: 0.5767 | logFC of CCL19 expression [3]: 0.789 | logFC of CD34 expression [3]: -1.516 | logFC of CDH5 expression [3]: -2.328 | logFC of CETP expression [3]: -1.732 | logFC of CFTR expression [3]: 0.8907 | logFC of COL6A5 expression [3]: 0.6309 | logFC of COL10A1 expression [3]: -1.169 | logFC of COX4I2 expression [3]: -2.07 | logFC of CXCL10 expression [3]: -1.71 | logFC of CXCR4 expression [3]: -1.727 | logFC of DLL4 expression [3]: -2.786 | logFC of ELN expression [3]: 0.8689 | logFC of FLT1 expression [3]: -3.369 | logFC of FLT4 expression [3]: -1.476 | logFC of FST expression [3]: 1.092 | logFC of GPX2 expression [3]: 1.178 | logFC of IGF1 expression [3]: 0.632 | logFC of KLF5 expression [3]: 0.8124 | logFC of LAMA3 expression [3]: 0.6871 | logFC of MASP1 expression [3]: 0.8164 | logFC of MET expression [3]: 0.7131 | logFC of MMP8 expression [3]: -1.053 | logFC of MMP9 expression [3]: -1.1396 | logFC of MMP11 expression [3]: -1.002 | logFC of MMP12 expression [3]: -1.411 | logFC of NOS3 expression [3]: -1.356 | logFC of NOTCH4 expression [3]: -1.605 | logFC of OCLN expression [3]: 0.6026 | logFC of PECAM1 expression [3]: -1.967 | logFC of PYGM expression [3]: 0.6237 | logFC of TEK expression [3]: -1.206 | logFC of TPSAB1/B2 expression [3]: -1.195 | logFC of WWC1 expression [3]: 0.7518

SMILES: Cc1ccc(=O)n(-c2ccccc2)c1 [pirfenidone, 5-methyl-1phenyl-2-1(H)-pyridone]
lung Col1a1 expression vs DMSO control (lung Col1a1 expression [1]): slight increase | reduction of COL1A1 expression (COL1A1 expression): did not significantly reduce | fold increase in concentration over compound 5 needed to reduce lung slice Col1a1 expression by 50% [2]: 3,940 fold | % Reduction of CDH2 expression [3]: -7.12% | % Reduction of COL1A1 expression [3]: 8.58% | % Reduction of COL5A3 expression [3]: 23.95% | % Reduction of ITGAS expression [3]: 26.21% | % Reduction of THBS2 expression [3]: 21.20% | logFC of ACACA expression [3]: 0.4392 | logFC of ACVRL1 expression [3]: -0.7278 | logFC of ALDH7A1 expression [3]: 0.6119 | logFC of C6 expression [3]: 1.475 | logFC of CD34 expression [3]: -0.8356 | logFC of CDH5 expression [3]: -1.0568 | logFC of CFTR expression [3]: 1.189 | logFC of COL4A1 expression [3]: -0.7024 | logFC of COL7A1 expression [3]: 0.6703 | logFC of COL14A1 expression [3]: -0.7785 | logFC of COX4I2 expression [3]: -0.7471 | logFC of CXCL2 expression [3]: 0.778 | logFC of CXCL12 expression [3]: -0.5918 | logFC of CXCR4 expression [3]: -0.8852 | logFC of EGFR expression [3]: 0.4764 | logFC of F11R expression [3]: 0.5803 | logFC of FGF19 expression [3]: -1.14 | logFC of GAS1 expression [3]: -0.6419 | logFC of GPC4 expression [3]: 0.4613 | logFC of GREM1 expression [3]: -0.7447 | logFC of HADH expression [3]: 0.4377 | logFC of HAVCR1 expression [3]: -0.7313 | logFC of ICAM1 expression [3]: 0.4322 | logFC of IFNG expression [3]: -0.5853 | logFC of KLF5 expression [3]: 0.7343 | logFC of KNG1 expression [3]: -1.1 | logFC of LYN expression [3]: 0.4785 | logFC of MET expression [3]: 1.096 | logFC of MMP7 expression [3]: 1.413 | logFC of MMRN1 expression [3]: -0.9784 | logFC of NOTCH4 expression [3]: -0.7164 | logFC of OCLN expression [3]: 0.5956 | logFC of PDGFRB expression [3]: -0.7514 | logFC of PECAM1 expression [3]: -0.9354 | logFC of PSENEN expression [3]: 0.4784 | logFC of PTGS2 expression [3]: 0.9466 | logFC of RELN expression [3]: -0.8283 | logFC of SAA1 expression [3]: 1.653 | logFC of TEK expression [3]: -0.8124 | logFC of WWC1 expression [3]: 0.8127

SMILES: Cc1cccc(-c2n[nH]cc2-c2ccc(F)c(-c3cnn(CCO)c3)c2)n1 [small molecule ALK5 inhibitor, 4-[2-Fluoro-5-[3-(6-methyl-2-pyridinyl)-1H-pyrazol-4-yl]phenyl]-1H-pyrazole-1-ethanol, reference compound]
lung Col1a1 expression vs DMSO control (lung Col1a1 expression [4]): substantial, statistically significant | lung Col1a1 expression vs DMSO control (lung Col1a1 expression [1]): substantial, statistically significant | lung Col1a1 expression vs DMSO control (lung Col1a1 expression [5]): greatest decrease | Type I Collagen gene Col1a1 expression vs DMSO control ([2]; slices cultured 3 days, integrin inhibitors at IC50, pan-αv and ALK5 inhibitors at 10x IC50): greatest decrease
